Experimental data taken from US11351164B2, “Inhibitors of indoleamine 2,3-dioxygenase and methods of their use” (BRISTOL-MYERS SQUIBB COMPANY, priority 2016, dated 2022).

Biological target: T1, human IDO1 (Homo sapiens, UniProt P14902)
T1 construct: expressed in transfected cells
Experiment: IDO inhibition assay in HEK293 cells stably expressing human IDO1 (kynurenine, Ehrlich reagent, absorbance 490 nm)
Format: cell-based
Details: 20 hours incubation, read-out: IDO1 HEK Human IC50
Procedure: HEK293 cells were transfected with a pCDNA-based mammalian expression vector harboring human IDO1 cDNA (NM 002164.2) by electroporation. They were cultured in medium (DMEM with 10% FBS) containing 1 mg/ml G418 for two weeks. Clones of HEK293 cells that stably expressed human IDO1 protein were selected and expanded for IDO inhibition assay. The human IDO1/HEK293 cells were seeded at 10,000 cells per 50 μL per well with RPMI/phenol red free media contains 10% FBS in a 384-well black wall clear bottom tissue culture plate (Matrix Technologies LLC) 100 nL of certain concentration of compound was then added to each well using ECHO liquid handling systems. The cells were incubated for 20 hours in 37° C. incubator with 5% CO2. The compound treatments were stopped by adding trichloroacetic acid (Sigma-Aldrich) to a final concentration at 0.2%. The cell plate was further incubated at 50° C. for 30 minute. The equal volume supernatant ([…]) and 0.2% (w/v) Ehrlich reagent (4-dimethylaminobenzaldehyde, Sigma-Aldrich) in glacial acetic acid were mixed in a new clear bottom 384-well plate. This plate was then incubated at room temperature for 30 minute. The absorbance at 490 nm was measured on Envision plate reader. Compound IC50 values were calculated using the counts of 500 nM of a reference standard treatment as one hundred percent inhibition, and counts of no compound but DMSO treatment as zero percent inhibition.

T1 sequence (P14902 whole entry): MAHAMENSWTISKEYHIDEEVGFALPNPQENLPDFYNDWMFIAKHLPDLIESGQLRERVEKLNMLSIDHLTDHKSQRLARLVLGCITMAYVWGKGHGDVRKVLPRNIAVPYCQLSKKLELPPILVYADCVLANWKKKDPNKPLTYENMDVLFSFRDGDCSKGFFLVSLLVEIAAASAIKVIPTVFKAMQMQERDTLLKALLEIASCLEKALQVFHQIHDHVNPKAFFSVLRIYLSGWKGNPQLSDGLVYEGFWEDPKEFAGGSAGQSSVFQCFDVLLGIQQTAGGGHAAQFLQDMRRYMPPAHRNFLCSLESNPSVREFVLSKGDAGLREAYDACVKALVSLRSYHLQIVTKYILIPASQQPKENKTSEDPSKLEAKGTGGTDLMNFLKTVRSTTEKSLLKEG

In order of falling IC50:
1. C[C@@H](c1ncc(-c2ccc(C#N)cc2)o1)[C@H]1CC[C@@H](c2ccnc3ccc(F)cc32)CC1 [Example 46, 4-(2-((R)-1-((1s,4S)-4-(6-Fluoroquinolin-4-yl)cyclohexyl)ethyl)oxazol-5-yl)benzonitrile]  386 nM
2. C[C@@H](c1ncc(-c2ccc(Cl)cc2)o1)[C@H]1CC[C@@H](c2ccnc3ccc(F)cc32)CC1 [Example 43, 5-(4-Chlorophenyl)-2-((R)-1-((1s,4S)-4-(6-fluoroquinolin-4-yl)cyclohexyl)ethyl)oxazole]  288 nM
3. C[C@@H](c1ncc(-c2ccc(F)cc2)o1)[C@H]1CC[C@@H](c2ccnc3ccc(F)cc32)CC1 [Example 45, 5-(4-Fluorophenyl)-2-((R)-1-((1s,4S)-4-(6-fluoroquinolin-4-yl)cyclohexyl)ethyl)oxazole]  182 nM
4. CCC(c1nnc(-c2ccc(OC(C)C)cc2)[nH]1)C1CCC(c2ccnc3ccc(F)cc23)CC1 (stereo not shown) [Example 53, 6-Fluoro-4-(4-(1-(5-(4-isopropoxyphenyl)-4H-1,2,4-triazol-3-yl)propyl)cyclohexyl)quinoline]  144 nM
5. C[C@@H](Nc1nnc(-c2ccc(Cl)cc2)[nH]1)[C@H]1CC[C@@H](c2ccnc3ccc(F)cc32)CC1 [Example 40, 5-(4-Chlorophenyl)-N—((R)-1-((1s,4S)-4-(6-fluoroquinolin-4-yl)cyclohexyl)ethyl)-4H-1,2,4-triazol-3-amine]  126 nM
6. CCC(Nc1nnc(-c2ccc(OC)cc2)o1)C1CCC(c2ccnc3ccc(F)cc23)CC1 (stereo not shown) [Example 50, N-(1-((1r,4r)-4-(6-Fluoroquinolin-4-yl)cyclohexyl)propyl)-5-(4-methoxyphenyl)-1,3,4-oxadiazol-2-amine]  122 nM
7. CCC(c1nnc(-c2ccc(OC(C)C)cc2)[nH]1)C1CCC(c2ccnc3ccc(F)cc23)CC1 (stereo not shown) [Example 51, 6-Fluoro-4-(4-(1-(5-(4-isopropoxyphenyl)-4H-1,2,4-triazol-3-yl)propyl)cyclohexyl)quinoline]  71.1 nM
8. CCC(c1nnc(-c2ccc(OC(C)C)cc2)o1)C1CCC(c2ccnc3ccc(F)cc23)CC1 (stereo not shown) [Example 54, 2-(1-(4-(6-Fluoroquinolin-4-yl)cyclohexyl)propyl)-5-(4-isopropoxyphenyl)-1,3,4-oxadiazole]  68.8 nM
9. COc1ccc(-c2nnc(N[C@H](C)[C@H]3CC[C@@H](c4ccnc5ccc(F)cc54)CC3)[nH]2)cc1 [Example 42, N—((R)-1-((1s,4S)-4-(6-Fluoroquinolin-4-yl)cyclohexyl)ethyl)-5-(4-methoxyphenyl)-4H-1,2,4-triazol-3-amine]  57.2 nM
10. C[C@@H](c1nnc(-c2ccc(Cl)cc2)[nH]1)[C@H]1CC[C@@H](c2ccnc3ccc(F)cc32)CC1 [Example 1, 4-((1s,4s)-4-((R)-1-(5-(4-Chlorophenyl)-4H-1,2,4-triazol-3-yl)ethyl)cyclohexyl)-6-fluoroquinoline]  47.5 nM
11. C[C@@H](c1nnc(-c2ccc(F)cc2)o1)[C@H]1CC[C@@H](c2ccnc3ccc(F)cc32)CC1 [Example 2, 2-(4-Fluorophenyl)-5-((R)-1-((1s,4s)-4-(6-fluoroquinolin-4-yl)cyclohexyl)ethyl)-1,3,4-oxadiazole]  39.2 nM
12. C[C@@H](c1ncc(-c2ccc(F)cc2)[nH]1)[C@H]1CC[C@@H](c2ccnc3ccc(F)cc32)CC1 [Example 47, 6-Fluoro-4-((1S,4s)-4-((R)-1-(5-(4-fluorophenyl)-1H-imidazol-2-yl)ethyl)cyclohexyl)quinoline]  18.3 nM
13. CCC(Nc1nnc(-c2ccc(OC)cc2)o1)C1CCC(c2ccnc3ccc(C(F)(F)F)cc23)CC1 (single isomer, unassigned) [Example 59, 5-(4-methoxyphenyl)-N-(1-((1s,4s)-4-(6-(trifluoromethyl)quinolin-4-yl)cyclohexyl)propyl)-1,3,4-oxadiazol-2-amine]  6 nM
14. CCC(Nc1nnc(-c2ccc(F)cc2)o1)C1CCC(c2ccnc3ccc(C(F)(F)F)cc23)CC1 (single isomer, unassigned) [Example 62, 5-(4-fluorophenyl)-N-(1-((1s,4s)-4-(6-(trifluoromethyl)quinolin-4-yl)cyclohexyl)propyl)-1,3,4-oxadiazol-2-amine]  1.7 nM

Biological target: T2, indoleamine 2,3-dioxygenase (IDO) (Homo sapiens, UniProt P14902)
T2 construct: host or cells: HeLa cells treated with IFNγ (25 ng/mL)
Experiment: HeLa cell-based indoleamine 2,3-dioxygenase (IDO) assay (IFNγ-induced kynurenine production, absorbance 480 nm)
Details: HeLa cells, IFNγ 25 ng/mL, 48 hour incubation
Procedure: Assessment of inhibitor activity in HeLa cell-based indoleamine 2,3-dioxygenase (IDO) assay:
HeLa (ATCC® CCL-2) cells were obtained from the ATCC® and cultured in Dulbecco's Modified Eagle Medium supplemented with 4.5 g/L glucose, […] L-glutamine and […] (#10-013-CV, Corning), 2 mM L-alanyl-L-glutamine dipeptide (#35050-061, Gibco), 100U/mL penicillin, 100 μg/mL stroptomycin (#SV30010. HyClone) and 10% fetal bovine serum (#SH30071.03 HyClone). Cells were maintained in a humidified incubator at 37° C. in 5% CO2.
IDO activity was assessed as a function of kynurenine production as follows: HeLa cells were seeded in a 96-well culture plate at a density of 5,000 cells/well and allowed to equilibrate overnight. After 24 hours, the media was aspirated and replaced with media containing IFNγ (#285-IF/CF, R&D Systems) at a final concentration of 25 ng/mL. A serial dilution of each test compound was added to the cells in a total volume of 200 μL of culture medium. After a further 48 hour incubation, 170 μL of supernatant was transferred from each well to a fresh 96-well plate, 12.1 μL of 6.1N trichloroacetic acid (#T0699, Sigma-Aldrich) was added to each well and mixed, followed by incubation at 65° C. for 20 minutes to hydrolyze N-formylkynurenine, the product of indoleamine 2,3-dioxygenase, to kynurenine. The reaction mixture was then centrifuged for 10 mins at 500×g to sediment the precipitate. 100 μL of the supernatant was transferred from each well to a fresh 96-well plate. 100 μl of 2% (w/v) p-dimethylaminobenzaldehyde (#15647-7, Sigma-Aldrich) in acetic acid (#A6283, Sigma-Aldrich) was added to each well mixed and incubated at room temperature for 20 mins. Kynurenine concentrations were determined by measuring absorbance at 480 nm and calibrating against an L-kynurenine (#K8625, Sigma-Aldrich) standard curve using a SPECTRAMAX® M2e microplate reader (Molecular Devices). The percentage activity at each inhibitor concentration was determined and IC50 values assessed using nonlinear regression.

T2 sequence (P14902 whole entry): as above

In order of rising IC50:
1. CCC(Nc1nnc(-c2ccc(F)cc2)o1)C1CCC(c2ccnc3ccc(C(F)(F)F)cc23)CC1 (single isomer, unassigned) [Example 62, 5-(4-fluorophenyl)-N-(1-((1s,4s)-4-(6-(trifluoromethyl)quinolin-4-yl)cyclohexyl)propyl)-1,3,4-oxadiazol-2-amine]  3.5 nM
2. CCC(Nc1nnc(-c2ccc(OC)cc2)o1)C1CCC(c2ccnc3ccc(C(F)(F)F)cc23)CC1 (single isomer, unassigned) [Example 59, 5-(4-methoxyphenyl)-N-(1-((1s,4s)-4-(6-(trifluoromethyl)quinolin-4-yl)cyclohexyl)propyl)-1,3,4-oxadiazol-2-amine]  4.7 nM
3. CCC(Nc1nnc(-c2ccc(Cl)cc2)o1)[C@H]1CC[C@@H](c2ccnc3ccc(C(F)(F)F)cc32)CC1 (single isomer, unassigned) [Example 58-2, 5-(4-Chlorophenyl)-N-(1-((1s,4s)-4-(6-(trifluoromethyl)quinolin-4-yl)cyclohexyl)propyl)-1,3,4-oxadiazol-2-amine]  7.4 nM
4. CCC(Nc1nnc(-c2ccc(OC)cc2)o1)C1CCC(Oc2ccnc3ccccc23)CC1 (single isomer, unassigned) [Example 64-2]  8.9 nM
5. C[C@@H](c1nnc(-c2ccc(Cl)cc2)[nH]1)[C@H]1CC[C@@H](c2ccnc3ccc(F)cc32)CC1 [Example 1, 4-((1s,4s)-4-((R)-1-(5-(4-Chlorophenyl)-4H-1,2,4-triazol-3-yl)ethyl)cyclohexyl)-6-fluoroquinoline]  14.8 nM
6. COCC(Nc1nnc(-c2ccc(OC)cc2)o1)[C@H]1CC[C@@H](c2ccnc3ccc(F)cc32)CC1 (single isomer, unassigned) [Example 65-1, N-(1-((1s,4s)-4-(6-Fluoroquinolin-4-yl)cyclohexyl)-2-methoxyethyl)-5-(4-methoxyphenyl)-1,3,4-oxadiazol-2-amine]  15.6 nM
7. CCC(Nc1nnc(-c2ccc(OC)cc2)o1)[C@H]1CC[C@@H](c2ccnc3c(C(F)(F)F)cccc32)CC1 (stereo partly shown) [Example 68, 5-(4-Methoxyphenyl)-N-(1-((1s,4s)-4-(8-(trifluoromethyl)quinolin-4-yl)cyclohexyl)propyl)-1,3,4-oxadiazol-2-amine]  20.2 nM
8. C[C@@H](Nc1ncc(-c2ccc(Cl)cc2)o1)[C@H]1CC[C@@H](c2ccnc3ccc(F)cc32)CC1 [Example 38, 5-(4-Chlorophenyl)-N—((R)-1-((1s,4S)-4-(6-fluoroquinolin-4-yl)cyclohexyl)ethyl)oxazol-2-amine]  21.1 nM
9. CCC(Nc1nnc(-c2ccc(OC)cc2)o1)[C@H]1CC[C@@H](c2ccnc(F)c2C)CC1 (single isomer, unassigned) [Example 63-1, N-(1-((1s,4s)-4-(2-Fluoro-3-methylpyridin-4-yl)cyclohexyl)propyl)-5-(4-methoxyphenyl)-1,3,4-oxadiazol-2-amine]  26.2 nM
10. C[C@@H](c1nnc(-c2ccc(F)cc2)o1)[C@H]1CC[C@@H](c2ccnc3ccc(F)cc32)CC1 [Example 2, 2-(4-Fluorophenyl)-5-((R)-1-((1s,4s)-4-(6-fluoroquinolin-4-yl)cyclohexyl)ethyl)-1,3,4-oxadiazole]  34.8 nM
11. CCC(Nc1nnc(-c2ccc(OC)cc2)o1)C1CCC(c2ccnc3ccc(C(F)(F)F)cc23)CC1 (single isomer, unassigned) [Example 60, 5-(4-methoxyphenyl)-N-(1-((1s,4s)-4-(6-(trifluoromethyl)quinolin-4-yl)cyclohexyl)propyl)-1,3,4-oxadiazol-2-amine]  54.8 nM
12. C[C@@H](Nc1ncc(-c2ccc(Cl)cc2)s1)[C@H]1CC[C@@H](c2ccnc3ccc(F)cc32)CC1 [Example 39, 5-(4-Chlorophenyl)-N—((R)-1-((1s,4S)-4-(6-fluoroquinolin-4-yl)cyclohexyl)ethyl)thiazol-2-amine]  288 nM
13. CCC(Nc1nnc(-c2ccc(Cl)cc2)o1)[C@H]1CC[C@@H](c2ccnc3ccc(C(F)(F)F)cc32)CC1 (single isomer, unassigned) [Example 58-1, 5-(4-Chlorophenyl)-N-(1-((1s,4s)-4-(6-(trifluoromethyl)quinolin-4-yl)cyclohexyl)propyl)-1,3,4-oxadiazol-2-amine]  326 nM
14. CCC(Nc1nnc(-c2ccc(OC)cc2)o1)C1CCC(Oc2ccnc3ccccc23)CC1 (single isomer, unassigned) [Example 64-1]  916 nM
